For the first assay, the system named is NCI-H1650. Nature of the assay: relative viability (nuclei count vs DMSO), 5 days (fraction); higher = more cells survive. As to conditions: first compound 2 µM. Put shortly:
(§1)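 Medians of duplicate plates are given as relative viability. That measure is the nuclei count in treated wells divided by the count in vehicle wells. Counts were taken on 4× images of lung cancer cell lines in 1536-well plates, 5 days after pin-tool dosing the day after seeding with one drug alone or a fixed anchor-drug dose plus five library-drug doses (not always all listed) in √10 steps.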
For the molecule `COCC1(CO)C(=O)C2CCN1CC2` (stereo unspecified) [PRIMA-1MET] + CS(=O)(=O)CCNCc1ccc(-c2ccc3ncnc(Nc4ccc(OCc5cccc(F)c5)c(Cl)c4)c3c2)o1 [Lapatinib] (partner 2 µM), the relative viability came out at 0.426.

Consider `COCC1(CO)C(=O)C2CCN1CC2` (stereo unspecified) [PRIMA-1MET] + O=C(CCCCCCC(=O)Nc1ccccc1)NO [Vorinostat] (partner 1 µM), for which the relative viability was 0.55.

`COCC1(CO)C(=O)C2CCN1CC2` (stereo unspecified) [PRIMA-1MET] + Cc1cc(Nc2cc(N3CCN(C)CC3)nc(Sc3ccc(NC(=O)C4CC4)cc3)n2)n[nH]1 [Tozasertib] (partner 0.1 µM) registered a relative viability of 0.492.

Regarding `COCC1(CO)C(=O)C2CCN1CC2` (stereo unspecified) [PRIMA-1MET] + COc1cccc2cc(-c3nc([C@H]4CC[C@H](C(=O)O)CC4)n4ncnc(N)c34)[nH]c12 [OSI-027] (partner 0.5 µM), the relative viability is 0.483.

Staying with this assay, now noted: first compound 6.325 µM.
`COCC1(CO)C(=O)C2CCN1CC2` (stereo unspecified) [PRIMA-1MET] + CS(=O)(=O)CCNCc1ccc(-c2ccc3ncnc(Nc4ccc(OCc5cccc(F)c5)c(Cl)c4)c3c2)o1 [Lapatinib] (partner 2 µM): the relative viability worked out at 0.647.

`COCC1(CO)C(=O)C2CCN1CC2` (stereo unspecified) [PRIMA-1MET] + O=C(CCCCCCC(=O)Nc1ccccc1)NO [Vorinostat] (partner 1 µM) displayed a relative viability of 0.703.

`COCC1(CO)C(=O)C2CCN1CC2` (stereo unspecified) [PRIMA-1MET] + Cc1cc(Nc2cc(N3CCN(C)CC3)nc(Sc3ccc(NC(=O)C4CC4)cc3)n2)n[nH]1 [Tozasertib] (partner 0.1 µM) returned a relative viability of 0.537.

Consider `COCC1(CO)C(=O)C2CCN1CC2` (stereo unspecified) [PRIMA-1MET] + COc1cccc2cc(-c3nc([C@H]4CC[C@H](C(=O)O)CC4)n4ncnc(N)c34)[nH]c12 [OSI-027] (partner 0.5 µM), for which the relative viability was 0.636.

The same assay, now with this note: first compound 20 µM.
As to `COCC1(CO)C(=O)C2CCN1CC2` (stereo unspecified) [PRIMA-1MET] + CS(=O)(=O)CCNCc1ccc(-c2ccc3ncnc(Nc4ccc(OCc5cccc(F)c5)c(Cl)c4)c3c2)o1 [Lapatinib] (partner 2 µM), the relative viability is 0.81.

`COCC1(CO)C(=O)C2CCN1CC2` (stereo unspecified) [PRIMA-1MET] + O=C(CCCCCCC(=O)Nc1ccccc1)NO [Vorinostat] (partner 1 µM) registered a relative viability of 0.406.

In turn, `COCC1(CO)C(=O)C2CCN1CC2` (stereo unspecified) [PRIMA-1MET] + Cc1cc(Nc2cc(N3CCN(C)CC3)nc(Sc3ccc(NC(=O)C4CC4)cc3)n2)n[nH]1 [Tozasertib] (partner 0.1 µM) registered a relative viability of 0.0907.

As to `COCC1(CO)C(=O)C2CCN1CC2` (stereo unspecified) [PRIMA-1MET] + COc1cccc2cc(-c3nc([C@H]4CC[C@H](C(=O)O)CC4)n4ncnc(N)c34)[nH]c12 [OSI-027] (partner 0.5 µM), the relative viability was determined as 0.0483.

For the next assay, the system named is NCI-H1734. Described as above. Particulars: first compound 0.2 µM. An outline of the steps: as §1
As for `COCC1(CO)C(=O)C2CCN1CC2` (stereo unspecified) [PRIMA-1MET] + CS(=O)(=O)CCNCc1ccc(-c2ccc3ncnc(Nc4ccc(OCc5cccc(F)c5)c(Cl)c4)c3c2)o1 [Lapatinib] (partner 2 µM), the relative viability is 1.43.

`COCC1(CO)C(=O)C2CCN1CC2` (stereo unspecified) [PRIMA-1MET] + O=C(CCCCCCC(=O)Nc1ccccc1)NO [Vorinostat] (partner 1 µM) registered a relative viability of 1.08.

`COCC1(CO)C(=O)C2CCN1CC2` (stereo unspecified) [PRIMA-1MET] + Cc1cc(Nc2cc(N3CCN(C)CC3)nc(Sc3ccc(NC(=O)C4CC4)cc3)n2)n[nH]1 [Tozasertib] (partner 0.1 µM) came in with a relative viability of 0.294.

As for `COCC1(CO)C(=O)C2CCN1CC2` (stereo unspecified) [PRIMA-1MET] + COc1cccc2cc(-c3nc([C@H]4CC[C@H](C(=O)O)CC4)n4ncnc(N)c34)[nH]c12 [OSI-027] (partner 0.5 µM), the relative viability came to 0.709.

The same assay, now with this note: first compound 0.6325 µM.
The molecule `COCC1(CO)C(=O)C2CCN1CC2` (stereo unspecified) [PRIMA-1MET] + CS(=O)(=O)CCNCc1ccc(-c2ccc3ncnc(Nc4ccc(OCc5cccc(F)c5)c(Cl)c4)c3c2)o1 [Lapatinib] (partner 2 µM) showed a relative viability of 0.98.

`COCC1(CO)C(=O)C2CCN1CC2` (stereo unspecified) [PRIMA-1MET] + O=C(CCCCCCC(=O)Nc1ccccc1)NO [Vorinostat] (partner 1 µM) yielded a relative viability of 0.718.

In turn, `COCC1(CO)C(=O)C2CCN1CC2` (stereo unspecified) [PRIMA-1MET] + Cc1cc(Nc2cc(N3CCN(C)CC3)nc(Sc3ccc(NC(=O)C4CC4)cc3)n2)n[nH]1 [Tozasertib] (partner 0.1 µM) yielded a relative viability of 0.265.

Molecule `COCC1(CO)C(=O)C2CCN1CC2` (stereo unspecified) [PRIMA-1MET] + COc1cccc2cc(-c3nc([C@H]4CC[C@H](C(=O)O)CC4)n4ncnc(N)c34)[nH]c12 [OSI-027] (partner 0.5 µM) registered a relative viability of 0.508.

The assay is the same for the next values; noted with them: first compound 2 µM.
For `COCC1(CO)C(=O)C2CCN1CC2` (stereo unspecified) [PRIMA-1MET] + CS(=O)(=O)CCNCc1ccc(-c2ccc3ncnc(Nc4ccc(OCc5cccc(F)c5)c(Cl)c4)c3c2)o1 [Lapatinib] (partner 2 µM), the relative viability was determined as 0.857.

The molecule `COCC1(CO)C(=O)C2CCN1CC2` (stereo unspecified) [PRIMA-1MET] + O=C(CCCCCCC(=O)Nc1ccccc1)NO [Vorinostat] (partner 1 µM) showed a relative viability of 0.777.

In turn, `COCC1(CO)C(=O)C2CCN1CC2` (stereo unspecified) [PRIMA-1MET] + Cc1cc(Nc2cc(N3CCN(C)CC3)nc(Sc3ccc(NC(=O)C4CC4)cc3)n2)n[nH]1 [Tozasertib] (partner 0.1 µM) displayed a relative viability of 0.233.

Consider `COCC1(CO)C(=O)C2CCN1CC2` (stereo unspecified) [PRIMA-1MET] + COc1cccc2cc(-c3nc([C@H]4CC[C@H](C(=O)O)CC4)n4ncnc(N)c34)[nH]c12 [OSI-027] (partner 0.5 µM), for which the relative viability stood at 0.413.

Staying with this assay, now noted: first compound 6.325 µM.
The molecule `COCC1(CO)C(=O)C2CCN1CC2` (stereo unspecified) [PRIMA-1MET] + CS(=O)(=O)CCNCc1ccc(-c2ccc3ncnc(Nc4ccc(OCc5cccc(F)c5)c(Cl)c4)c3c2)o1 [Lapatinib] (partner 2 µM) showed a relative viability of 1.07.

`COCC1(CO)C(=O)C2CCN1CC2` (stereo unspecified) [PRIMA-1MET] + O=C(CCCCCCC(=O)Nc1ccccc1)NO [Vorinostat] (partner 1 µM) registered a relative viability of 0.536.

These data come from the supplement of paper PMC10307832.
